The record followed here is patent US10070645B2, “N-cycloalkyl-N-{[2-(1-substitutedcycloalkyl)phenyl]methylene}-(thio)carboxamide derivatives” (BAYER CROPSCIENCE AKTIENGESELLSCHAFT, priority 2013, dated 2018).

A short description of this data set: log P by HPLC on a reversed-phase column (C 18), EEC Directive 79/831 Annex V.A8. In kind it is physicochemical. The conditions noted are these: 0.1% aqueous formic acid and acetonitrile; for logP: 40° C., linear gradient 10% to 90% acetonitrile; for chromatographic logP: reversed-phase HPLC column (C 18), HPLC C 18, 40° C. As for the experimental part:
In table 1, the log P values were determined in accordance with EEC Directive 79/831 Annex V.A8 by HPLC (High Performance Liquid Chromatography) on a reversed-phase column (C 18), using the method described below:
Temperature: 40° C.; Mobile phases: 0.1% aqueous formic acid and acetonitrile; linear gradient from 10% acetonitrile to 90% acetonitrile.
Calibration was carried out using unbranched alkan-2-ones (comprising 3 to 16 carbon atoms) with known log P values (determination of the log P values by the retention times using linear interpolation between two successive alkanones). lambda-max-values were determined using UV-spectra from 200 nm to 400 nm and the peak values of the chromatographic signals.

[1] abbreviates: HPLC on reversed-phase column (C 18).
Where [2] appears, read: HPLC, reversed-phase column (C 18).
Where [3] appears, read: Table 4 (aldehydes of formula IV).

With `Cc1ccc(C2(CC(C)C)CC2)c(CN(C(=O)c2c(C(F)F)nn(C)c2Cl)C2CC2)c1` [I.160], the log partition coefficient (logP) under setting [1] is recorded as 5.54. Turning to `Cn1nc(C(F)F)c(C(=O)N(Cc2cc(F)c(F)cc2C2(C)CC2)C2CC2)c1F` [I.048], under setting [2], the logP is 4.01. The molecule `Cc1ccc(C2(C)CC2(Cl)Cl)c(CN(C(=O)c2c(C(F)F)nn(C)c2F)C2CC2)c1Cl` (racemic) [I.178] gave a log partition coefficient (logP) under setting [1] of 4.67. `C=Cc1ccc(C2(C)CC2)c(CN(C(=O)c2c(C(F)F)nn(C)c2F)C2CC2)c1` [I.080] showed a logP under setting [2] of 4.34. The same measure, in the same setting: under `CCC1(c2cc(C)ccc2CN(C(=O)c2c(C(F)F)nn(C)c2F)C2CC2)CC1` [I.104] stands 4.59. On to `CC1(c2ccc(Br)cc2CNC2CC2)CC1` [II.09, N-[5-bromo-2-(1-methylcyclopropyl)benzyl]cyclopropanamine], for which the chromatographic logP (Table 3 (amines of formula II)) worked out at 1.43.

For the molecule `COc1cc(CN(C(=S)c2c(C(F)F)nn(C)c2Cl)C2CC2)c(C2(C)CC2)cc1OC` [I.056], under setting [2], the logP is on record as 4.09. `O=Cc1cc(Cl)ccc1C1(C(=O)O)CC1` [IV.24, 1-(4-chloro-2-formylphenyl)cyclopropanecarboxylic acid] returned a chromatographic logP under setting [3] of 1.91.

For `Cn1nc(C(F)F)c(C(=O)N(Cc2ccc(Cl)cc2C2(C)CC2)C2CC2)c1Cl` [I.019], the log partition coefficient (logP) under setting [2] came out at 4.54. In turn, `Cn1nc(C(F)F)c(C(=O)N(Cc2c(C3(C)CC3)ccc(Cl)c2F)C2CC2)c1F` [I.084] had a logP under setting [2] of 4.24. In turn, `CCC1(c2ccc(C)cc2C=O)CC1` [IV.18, 2-(1-ethylcyclopropyl)-5-methylbenzaldehyde] had a chromatographic logP under setting [3] of 4.29. In turn, `Cn1nc(C(F)F)c(C(=O)N(Cc2ccccc2C2(C(F)F)CC2)C2CC2)c1F` [I.142] registered a logP under setting [2] of 3.33. On the same count and under the same terms, under `Cc1ccc(C2(C(F)F)CC2)c(CN(C(=O)c2c(C(F)F)nn(C)c2Cl)C2CC2)c1` [I.154] stands 3.76; under `Cn1nc(C(F)F)c(C(=O)N(Cc2ccc(C3CCOCC3)cc2C2(C)CC2)C2CC2)c1F` [I.047], 3.87. On to `Cc1ccc(C2(C)CC2)c(CN(C(=O)c2c(C(F)F)nn(C)c2Cl)C2(C#N)CC2)c1` [I.078], for which the log partition coefficient (logP) under setting [2] is 3.87. Molecule `CC1(c2c(Cl)cccc2CBr)CC1` [V.01, 1-(bromomethyl)-3-chloro-2-(1-methylcyclopropyl)benzene] registered a chromatographic logP (Table 5 (formula V)) of 4.86. For the molecule `Cn1nc(C(F)F)c(C(=O)N(Cc2ccc(-c3ccc4ncccc4c3)cc2C2(C)CC2)C2CC2)c1F` [I.046], under setting [2], the logP is given as 3.09.

For `Cn1nc(C(F)F)c(C(=O)N(Cc2c(C3(C)CC3(Cl)Cl)ccc(Cl)c2Cl)C2CC2)c1Cl` (racemic) [I.174], the logP under setting [1] was 4.81.

Under setting [2], `Cc1ccccc1-c1ccc(CN(C(=O)c2c(C(F)F)nn(C)c2F)C2CC2)c(C2(C)CC2)c1` [I.035] yielded a logP of 5.26.

On to `C#CC1(c2ccc(C)cc2CN(C(=O)c2c(C(F)F)nn(C)c2F)C2CC2)CC1` [I.092], for which the log partition coefficient (logP) under setting [2] came to 3.68. On to `Cc1ccc(C2(C)CC2)c(CN(C(=O)c2c(C(F)F)nn(C)c2Cl)C2(C)CC2)c1` [I.077], for which, under setting [2], the logP was determined as 4.63.

`Cn1nc(C(F)F)c(C(=O)N(Cc2c(Br)cccc2C2(C(F)F)CC2)C2CC2)c1Cl` [I.156] yielded a lipophilicity (logP) under setting [2] of 3.87. On to `COc1cc(CN(C(=O)c2c(C(F)F)nn(C)c2Cl)C2CC2)c(C2(C)CC2)cc1OC` [I.054], for which, under setting [2], the logP stood at 3.46. Same read-out and setting: next, `Cn1nc(C(F)F)c(C(=O)N(Cc2ccc(F)cc2C2(C(F)F)CC2)C2CC2)c1F` [I.144]: 3.41; `Cc1ccc(C2(C)CC2)c(CN(C(=O)c2c(C(F)F)nn(C)c2F)C2CC2)c1F` [I.087]: 4.21. Under setting [3], `CC1(c2cc(F)c(F)cc2C=O)CC1` [IV.06, 4,5-difluoro-2-(1-methylcyclopropyl)benzaldehyde] registered a chromatographic logP of 3.44.

In the case of `Cn1nc(C(F)F)c(C(=O)N(Cc2cc(Cl)ccc2C2(C#N)CC2)C2CC2)c1Cl` [I.095], the logP under setting [2] came out at 3.31.

As a reminder, the logP is the decadic logarithm of the partition coefficient of the neutral form, usually between octanol and water. A high value points to higher lipophilicity. In general, chromatographic logP refers to lipophilicity estimated from chromatographic retention.
